This is an account of results in patent US20220153732A1, “PROTEIN SECRETION INHIBITORS” (KEZAR LIFE SCIENCES, priority 2019, published 2022).

One may read the pEC50 as the EC50 on a negative log10 scale, so that one unit is a factor of ten.

Each structure is given as a SMILES string. pEC50, pIC50: −log10 of the molar value. Where two headings read alike, the source gives them in different places.

Common to all, as to type: cell-based
In assay [1] the test system is TNFα-FL/Gaussia Luciferase. Put plainly: Dox Induced TNFα-FL-Gluc Assay. In a few lines:
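Compounds were added in doxycycline-containing DMSO/media to cells plated the previous day and incubated at 37° C under 5% CO2. These cells stably express a TNFα-FL/Gaussia luciferase cDNA whose expression is under T-REx (Dox-inducible) control, selected with Hygromycin and Blasticidin.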

Assay [2] concerns human multiple myeloma cell line U266B1. Put plainly: U266 Cell Viability Assay. Particulars: U-266, 48 hr, U266B1 cells, Celltiter-Glo, read-out: 48 hr U266 Viability Celltiter-Glo: Mean EC50. The essentials: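 Viability measured by CellTiter-Glo luciferase signal after 48 h compound exposure (37 °C, 5% CO2) of U266B1 cells in 384-well format. Where stereochemistry is not shown, data refer to the stereoisomer mixture.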
(Cellular ATP, detected with luciferase, serves as a proxy for viable cell number.)

For assay [3], the system named is IL-2-FL/Gaussia Luciferase. Put plainly: Dox Induced IL2-FL-Gluc Assay. The essentials:
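Compounds were added together with doxycycline in DMSO/media and incubated at 37° C., 5% CO2. The cells were a stably selected line carrying IL-2-FL/Gaussia luciferase under T-REx inducible control. Structures drawn without stereochemistry were tested as stereoisomer mixtures.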

The subject of assay [4] is human multiple myeloma cell line NCI-H929. As to the kind of experiment: H929 Cell Viability Assay. The following applies: 48 hr, NCI-H929 cells, Celltiter-Glo, read-out: 48 hr H929 Viability Celltiter-Glo: Mean EC50. As to the method: Plates were incubated at 37° C., 5% CO2 for 48 hours. After 48 hours, Celltiter-Glo® (Promega) was added to each well and luciferase signal was quantified using Tecan Infinite M1000 Pro for cell viability determination.
For chemical structures that include one or more stereoisomers, but are illustrated without indicating stereochemistry, the assay data refers to a mixture of stereoisomers.

The subject of assay [5] is HER3-ss+4aa/Gaussia Luciferase. As to the kind of experiment: Dox-Induced Her3-ss-Gluc Assay. The essentials:
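Compounds, diluted in DMSO/media containing doxycycline, were incubated at 37° C., 5% CO2 with cells seeded one day earlier. The cells stably express HER3-ss+4aa/Gaussia luciferase under T-REx control. Where no stereochemistry is shown, data refer to the mixture of stereoisomers.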

The subject of assay [6] is PD1-ss+10aa/Gaussia Luciferase. Put plainly: Dox-Induced PD1-ss-Gluc Assay. In a few lines:
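Compounds, diluted in DMSO/media with doxycycline, were added to cells plated a day earlier and kept at 37° C under 5% CO2. The cells stably express a Gaussia luciferase construct fused to PD1-ss+10aa, induced via the T-REx system. Unassigned stereochemistry means mixture data.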

The mark [7] stands for this setting: 24 hr doxycycline induction, 293FRT/TO cells, Gaussia luciferase signal; read-out: 24 hr Dox Inducible TNFaFLGluc 293FRT/TO: Mean IC50.
Where [8] appears, read: 24 hr doxycycline induction, 293FRT/TO cells, Gaussia luciferase signal; read-out: 24 hr Dox Inducible IL2FLGIuc 293FRT/TO: Mean IC50.
The mark [9] stands for this setting: 24 hr doxycycline induction, 293FRT/TO cells, Gaussia luciferase signal; read-out: 24 hr Dox Inducible Her3(ss + 4)Gluc 293FRT/TO: Mean IC50.
The mark [10] stands for this setting: 24 hr doxycycline induction, 293FRT/TO cells, Gaussia luciferase signal; read-out: 24 hr Dox Inducible PD1ssGluc 293FRT/TO: Mean IC50.
[11] abbreviates: 24 hr, doxycycline-induced, 293FRT/TO cells; read-out: 24 hr Dox Inducible TNFaFLGluc 293FRT/TO: Mean IC50.
Setting [12] is: 24 hr, doxycycline-induced, 293FRT/TO cells; read-out: 24 hr Dox Inducible IL2FLGIuc 293FRT/TO: Mean IC50.
The mark [13] stands for this setting: 24 hr, doxycycline-induced, 293FRT/TO cells; read-out: 24 hr Dox Inducible Her3(ss + 4)Gluc 293FRT/TO: Mean IC50.
The mark [14] stands for this setting: 24 hr, doxycycline-induced, 293FRT/TO cells; read-out: 24 hr Dox Inducible PD1ssGluc 293FRT/TO: Mean IC50.

Take `Cc1cc(Cn2cccc2C(=O)Nc2nc(C(C)(C)OC(C)C)cs2)ccn1` [Compound A83, N-(4-(2-isopropoxypropan-2-yl)thiazol-2-yl)-1-((2-methylpyridin-4-yl)methyl)-1H-pyrrole-2-carboxamide]: the pIC50 is under 4.60 in assay [1] (setting [7]), 5.35 in assay [3] (setting [8]), under 4.60 in assay [5] (setting [9]) and 5.27 in assay [6] (setting [10]). For the same molecule, the negative logarithm of the EC50 (pEC50) in assay [2] and in assay [4] was under 4.60 each time.
In the case of `C/C(=C\c1csc(NC(=O)c2cccn2Cc2ccncc2)n1)c1ccccc1` [Compound A252], the pIC50 is 5.16 in assay [1] (setting [7]), 5.89 in assay [3] (setting [8]), 5.95 in assay [5] (setting [9]) and 6.28 in assay [6] (setting [10]). In addition, the negative-log EC50 (pEC50) in assay [2] is under 4.60; in assay [4], 4.85.
Take `C[C@H](OC(C)(C)c1csc(NC(=O)c2cccn2Cc2ccncc2)n1)c1ccccc1` [Compound A1, (S)-N-(4-(2-(1-phenylethoxy)propan-2-yl)thiazol-2-yl)-1-(pyridin-4-ylmethyl)-1H-pyrrole-2-carboxamide]: the pIC50 in assay [1] (setting [7]) was 6.40; in assay [3] (setting [8]) it was 7.03; in assay [5] (setting [9]), 7.26; in assay [6] (setting [10]), 7.62. For the same molecule, the pEC50 in assay [2] is under 4.60; in assay [4] it was 5.73.
On to `CC(C)(OCC1CCCCC1)c1csc(NC(=O)c2cccn2Cc2ccncc2)n1` [Compound A7, N-(4-(2-(cyclohexylmethoxy)propan-2-yl)thiazol-2-yl)-1-(pyridin-4-ylmethyl)-1H-pyrrole-2-carboxamide], for which the pIC50 was 6.09 in assay [1] (setting [7]), 7.15 in assay [3] (setting [8]), 7.03 in assay [5] (setting [9]) and 7.24 in assay [6] (setting [10]). Moreover, the results for the pEC50 in assay [2] and in assay [4] were under 4.60 and 5.41, respectively.
For `CC(C)OC(C)(C)c1csc(NC(=O)c2cccn2C(C)c2ccncc2)n1` (stereo not drawn) [Compound A61], the pIC50 was under 4.60 in assay [1] (setting [7]), 5.62 in assay [3] (setting [8]), 5.47 in assay [5] (setting [9]) and 5.78 in assay [6] (setting [10]). For the same molecule, the negative logarithm of the EC50 (pEC50) in assay [2] and in assay [4] was under 4.60 each time.
As for `O=C(Nc1nc(/C=C/c2ccc3c(c2)OCO3)cs1)c1cccn1Cc1ccncc1` [Compound A234, N-(4-(2-(benzo[d][1,3]dioxo1-5-yl)vinyl)thiazol-2-yl)-1-(pyridin-4-ylmethyl)-1H-pyrrole-2-carboxamide], the pIC50 in assay [1] (setting [7]) is under 4.60; in assay [3] (setting [8]) it was 6.47; in assay [5] (setting [9]) it was 6.67; in assay [6] (setting [10]) it was 7.20. Besides, the pEC50 is under 4.60 in assay [2] and 5.35 in assay [4].
Turning to `O=C(Nc1nc(C2Cc3ccccc3O2)cs1)c1cccn1Cc1ccncc1` (stereo not drawn) [Compound A288], the pIC50 in assay [1] (setting [7]) is 5.52; in assay [3] (setting [8]), 5.81; in assay [5] (setting [9]) it was 5.90; in assay [6] (setting [10]) it was 6.36. Besides, the pEC50 in assay [2] was under 4.60; in assay [4], 4.62.
For `CC(C)(C)[Si](O[C@@H]1CCN(c2ccccc2)[C@@H]1c1csc(NC(=O)c2cccn2Cc2ccncc2)n1)(c1ccccc1)c1ccccc1` [Compound A352], the pIC50 in assay [1] (read-out: 24 hr Dox Inducible TNFaFLGluc 293FRT/TO: Mean IC50; 24 hr, doxycycline-induced, 293FRT/TO cells) was 7.21; in assay [3] (read-out: 24 hr Dox Inducible IL2FLGIuc 293FRT/TO: Mean IC50; 24 hr, doxycycline-induced, 293FRT/TO cells), 7.80; in assay [5] (read-out: 24 hr Dox Inducible Her3(ss + 4)Gluc 293FRT/TO: Mean IC50; 24 hr, doxycycline-induced, 293FRT/TO cells), 7.72; in assay [6] (read-out: 24 hr Dox Inducible PD1ssGluc 293FRT/TO: Mean IC50; 24 hr, doxycycline-induced, 293FRT/TO cells) it was 8.10. In addition, the negative logarithm of the EC50 (pEC50) in assay [2] is under 4.60; in assay [4] it was 6.34.
`O=C(Nc1nc([C@@H]2CCCN2C(=O)c2ccccc2)cs1)c1cccn1Cc1ccncc1` [Compound A313]: the pIC50 in assay [1] (setting [11]) is under 4.60; in assay [3] (setting [12]) it was 5.20; in assay [5] (setting [13]), 5.10; in assay [6] (setting [14]), 5.41. For the same molecule, the negative logarithm of the EC50 (pEC50) in assay [2] and in assay [4] was under 4.60 in each case.
Consider `CC(C)c1csc(NC(=O)c2cccn2Cc2ccncc2)n1` [Compound A26, N-(4-isopropylthiazol-2-yl)-1-(pyridin-4-ylmethyl)-1H-pyrrole-2-carboxamide], for which the pIC50 in assay [1] (setting [7]) was 4.97; in assay [3] (setting [8]), 6.12; in assay [5] (setting [9]), 6.09; in assay [6] (setting [10]) it was 6.50. Also, the pEC50 in assay [2] and in assay [4] was under 4.60 throughout.
On to `CCc1sc(NC(=O)c2cccn2Cc2ccncc2)nc1CN1CCN(S(=O)(=O)CC)CC1` [Compound A92, N-(5-ethyl-4-((4-(ethylsulfonyl)piperazin-1-yl)methyl)thiazol-2-yl)-1-(pyridin-4-ylmethyl)-1H-pyrrole-2-carboxamide], for which the pIC50 is under 4.60 in assay [1] (setting [7]), under 4.60 in assay [3] (setting [8]), under 4.60 in assay [5] (setting [9]) and 4.88 in assay [6] (setting [10]). Moreover, the pEC50 in assay [2] and in assay [4] was under 4.60 each time.
Consider `CCN(C(=O)c1cccn1Cc1ccncc1)c1nccs1` [Compound B14], for which the pIC50 in assay [1] (setting [11]), in assay [3] (setting [12]), in assay [5] (setting [13]) and in assay [6] (setting [14]) was under 4.60 each time. For the same molecule, the pEC50 in assay [2] and in assay [4] was under 4.60 each time.
Consider `O=C(Nc1nc(N2CCC(c3ccccc3)C2)cs1)c1cccn1Cc1ccncc1` (stereo not drawn) [Compound A273], for which the pIC50 in assay [1] (setting [7]), in assay [3] (setting [8]), in assay [5] (setting [9]) and in assay [6] (setting [10]) was under 4.60 in each case. Also, the negative-log EC50 (pEC50) in assay [2] and in assay [4] was under 4.60 each time.
`O=C(Nc1nc(C2CC(c3ccccc3)C2)cs1)c1cccn1Cc1ccncc1` (stereo not drawn) [Compound A268]: the pIC50 in assay [1] (setting [7]) was 6.09; in assay [3] (setting [8]) it was 6.54; in assay [5] (setting [9]), 6.89; in assay [6] (setting [10]), 7.28. Further, the negative logarithm of the EC50 (pEC50) was under 4.60 in assay [2] and 5.14 in assay [4].
Regarding `CC(C)OC(C)(C)c1csc(NC(=O)c2nccn2Cc2ccncc2)n1` [Compound A108, N-(4-(2-isopropoxypropan-2-yl)thiazol-2-yl)-1-(pyridin-4-ylmethyl)-1H-imidazole-2-carboxamide], the pIC50 in assay [1] (setting [7]) was under 4.60; in assay [3] (setting [8]), 5.14; in assay [5] (setting [9]), under 4.60; in assay [6] (setting [10]), under 4.60. Moreover, the pEC50 in assay [2] and in assay [4] was under 4.60 each time.
With `O=C(Nc1nc(C2CC2)cs1)c1cccn1Cc1ccncc1` [Compound A51], the pIC50 is under 4.60 in assay [1] (setting [7]), 5.53 in assay [3] (setting [8]), 5.47 in assay [5] (setting [9]) and 5.89 in assay [6] (setting [10]). Further, the negative-log EC50 (pEC50) in assay [2] and in assay [4] was under 4.60 in each case.
Turning to `CC(C)(C)c1cnc(NC(=O)c2cccn2Cc2ccncc2)s1` [Compound A54], the pIC50 in assay [1] (setting [7]) was under 4.60; in assay [3] (setting [8]), 5.35; in assay [5] (setting [9]), 5.39; in assay [6] (setting [10]), 5.86. For the same molecule, the pEC50 in assay [2] and in assay [4] was under 4.60 each time.
On to `O=C(Nc1nc([C@H]2CCCN2Cc2ccccc2)cs1)c1cccn1Cc1ccncc1` [Compound A278], for which the pIC50 in assay [1] (setting [7]) is 5.30; in assay [3] (setting [8]), 5.90; in assay [5] (setting [9]), 5.95; in assay [6] (setting [10]), 6.27. The pEC50 is under 4.60 in assay [2] and under 4.62 in assay [4].
On to `O=C(Nc1nc(/C=C/c2cccnc2)cs1)c1cccn1Cc1ccncc1` [Compound A165, N-(4-(2-(pyridin-3-yl)vinyl)thiazol-2-yl)-1-(pyridin-4-ylmethyl)-1H-pyrrole-2-carboxamide], for which the pIC50 is under 4.60 in assay [1] (setting [7]), 4.97 in assay [3] (setting [8]), 5.01 in assay [5] (setting [9]) and 5.78 in assay [6] (setting [10]). The pEC50 in assay [2] was under 4.60; in assay [4], 4.96.
